In this experiment the test system is Nrf2 transcriptional activity (pARE-Luc reporter) in HepG2 cells. Kind of experiment: In vitro Nrf2 transcriptional activity measurement by ARE-dependent reporter assay in HepG2 cell. Format: cell-based, human. As to conditions: Homo sapiens; HepG2 cells transfected with pARE-Luc, 4 hours at 37° C.; luciferase activity of Example 1-54 or Example 17-23 at 3.75 μM defined as 100%. The method, boiled down:
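Luminescence readout (Bright-Glo) after 4 h, 37° C compound exposure of HepG2 cells carrying the ARE-luciferase vector pGL4.37. Each well converted to % response versus reference compound at 3.75 μM, and EC50 derived from dose-response curves.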
Take `CC(C)(C#N)CN1CC2(C1)CN(c1cc(Cl)c(C(=O)N3COc4c(cccc4-c4cc(N5C6CCC5COC6)c(C(=O)O)cc4F)C3)c(Cl)c1)C2` [Compound 7-7, 4-[3-[2,6-Dichloro-4-[6-(2-cyano-2-methylpropyl)-2,6-diazaspiro[3.3]heptan-2-yl]benzoyl]-2,4-dihydro-1,3-benzoxazin-8-yl]-5-fluoro-2-(3-oxa-8-azabicyclo[3.2.1]octan-8-yl)benzoic acid]: the response was half-maximal at 3.4 nM (EC50). `COCCN1CCN(c2cc(Cl)c(C(=O)N3COc4c(cccc4-c4cc(N5C6CCC5COC6)c(C(=O)O)cc4F)C3)c(Cl)c2)[C@@H](C)C1` [Compound 7-8, 4-[3-[2,6-Dichloro-4-[(2S)-4-(2-methoxyethyl)-2-methylpiperazin-1-yl]benzoyl]-2,4-dihydro-1,3-benzoxazin-8-yl]-5-fluoro-2-(3-oxa-8-azabicyclo[3.2.1]octan-8-yl)benzoic acid]: the midpoint of the response, the EC50, lay at 3.2 nM. For `COCCN1CCN(c2cc(Cl)c(C(=O)N3COc4c(cccc4-c4cc(N5C6CCC5COC6)c(C(=O)O)cc4F)C3)c(Cl)c2)[C@H](C)C1` [Compound 7-9, 4-[3-[2,6-Dichloro-4-[(2R)-4-(2-methoxyethyl)-2-methylpiperazin-1-yl]benzoyl]-2,4-dihydro-1,3-benzoxazin-8-yl]-5-fluoro-2-(3-oxa-8-azabicyclo[3.2.1]octan-8-yl)benzoic acid], a half-maximal response (EC50) required 8.4 nM. In the case of `COCCN1CC2CC(C1)N2c1cc(Cl)c(C(=O)N2COc3c(cccc3-c3cc(N4C5CCC4COC5)c(C(=O)O)cc3F)C2)c(Cl)c1` [Compound 7-10, 4-[3-[2,6-Dichloro-4-[3-(2-methoxyethyl)-3,6-diazabicyclo[3.1.1]heptan-6-yl]benzoyl]-2,4-dihydro-1,3-benzoxazin-8-yl]-5-fluoro-2-(3-oxa-8-azabicyclo[3.2.1]octan-8-yl)benzoic acid] it was 27 nM. Take `COCCN1C2CCC1CN(c1cc(Cl)c(C(=O)N3COc4c(cccc4-c4cc(N5C6CCC5COC6)c(C(=O)O)cc4F)C3)c(Cl)c1)C2` [Compound 7-11, 4-[3-[2,6-Dichloro-4-[8-(2-methoxyethyl)-3,8-diazabicyclo[3.2.1]octan-3-yl]benzoyl]-2,4-dihydro-1,3-benzoxazin-8-yl]-5-fluoro-2-(3-oxa-8-azabicyclo[3.2.1]octan-8-yl)benzoic acid]: the response was half-maximal at 3.2 nM (EC50). In the case of `COCCN1CC2CCC(C1)N2c1cc(Cl)c(C(=O)N2COc3c(cccc3-c3cc(N4C5CCC4COC5)c(C(=O)O)cc3F)C2)c(Cl)c1` [Compound 7-12, 4-[3-[2,6-Dichloro-4-[3-(2-methoxyethyl)-3,8-diazabicyclo[3.2.1]octan-8-yl]benzoyl]-2,4-dihydro-1,3-benzoxazin-8-yl]-5-fluoro-2-(3-oxa-8-azabicyclo[3.2.1]octan-8-yl)benzoic acid] it was 2.3 nM. With `O=C(O)c1cc(F)c(-c2cccc3c2OCN(C(=O)c2c(Cl)cc(N4CC5CCC(C4)N5CC(F)F)cc2Cl)C3)cc1N1C2CCC1COC2` [Compound 7-13, 4-[3-[2,6-Dichloro-4-[8-(2,2-difluoroethyl)-3,8-diazabicyclo[3.2.1]octan-3-yl]benzoyl]-2,4-dihydro-1,3-benzoxazin-8-yl]-5-fluoro-2-(3-oxa-8-azabicyclo[3.2.1]octan-8-yl)benzoic acid] the figure was 5.7 nM. In the case of `COCCN1C2CC1CN(c1cc(Cl)c(C(=O)N3COc4c(cccc4-c4cc(N5C6CCC5COC6)c(C(=O)O)cc4F)C3)c(Cl)c1)C2` [Compound 7-14, 4-[3-[2,6-Dichloro-4-[6-(2-methoxyethyl)-3,6-diazabicyclo[3.1.1]heptan-3-yl]benzoyl]-2,4-dihydro-1,3-benzoxazin-8-yl]-5-fluoro-2-(3-oxa-8-azabicyclo[3.2.1]octan-8-yl)benzoic acid] it was 24 nM. Consider `O=C(O)c1cc(F)c(-c2cccc3c2OCN(C(=O)c2c(Cl)cc(N4CC5CCC(C4)N5CC4(F)COC4)cc2Cl)C3)cc1N1C2CCC1COC2` [Compound 7-15, 4-[3-[2,6-Dichloro-4-[8-[(3-fluorooxetan-3-yl)methyl]-3,8-diazabicyclo[3.2.1]octan-3-yl]benzoyl]-2,4-dihydro-1,3-benzoxazin-8-yl]-5-fluoro-2-(3-oxa-8-azabicyclo[3.2.1]octan-8-yl)benzoic acid], for which the EC50 is 2.5 nM. With `COCCN1C[C@H]2CC[C@@H]1CN2c1cc(Cl)c(C(=O)N2COc3c(cccc3-c3cc(N4C5CCC4COC5)c(C(=O)O)cc3F)C2)c(Cl)c1` [Compound 7-16, 4-[3-[2,6-Dichloro-4-[(1R,4R)-5-(2-methoxy-ethyl)-2,5-diazabicyclo[2.2.2]octan-2-yl]benzoyl]-2,4-dihydro-1,3-benzoxazin-8-yl]-5-fluoro-2-(3-oxa-8-azabicyclo[3.2.1]octan-8-yl)benzoic acid] the figure was 7.4 nM; with `COCCN1C[C@@H]2CC[C@H]1CN2c1cc(Cl)c(C(=O)N2COc3c(cccc3-c3cc(N4C5CCC4COC5)c(C(=O)O)cc3F)C2)c(Cl)c1` [Compound 7-17, 4-[3-[2,6-Dichloro-4-[(1S,4S)-5-(2-methoxy-ethyl)-2,5-diazabicyclo[2.2.2]octan-2-yl]benzoyl]-2,4-dihydro-1,3-benzoxazin-8-yl]-5-fluoro-2-(3-oxa-8-azabicyclo[3.2.1]octan-8-yl)benzoic acid], 9 nM. In the case of `COCC(COC)N1C2CCC1CN(c1cc(Cl)c(C(=O)N3COc4c(cccc4-c4cc(N5C6CCC5COC6)c(C(=O)O)cc4F)C3)c(Cl)c1)C2` [Compound 7-18, 4-[3-[2,6-Dichloro-4-[8-(1,3-dimethoxypropan-2-yl)-3,8-diazabicyclo[3.2.1]octan-3-yl]benzoyl]-2,4-dihydro-1,3-benzoxazin-8-yl]-5-fluoro-2-(3-oxa-8-azabicyclo[3.2.1]octan-8-yl)benzoic acid] it was 1.7 nM; in that of `COCCN1CCC2(C1)CN(c1cc(Cl)c(C(=O)N3COc4c(cccc4-c4cc(N5C6CCC5COC6)c(C(=O)O)cc4F)C3)c(Cl)c1)C2` [Compound 8-1, 4-[3-[2,6-Dichloro-4-[7-(2-methoxyethyl)-2,7-diazaspiro[3.4]octan-2-yl]benzoyl]-2,4-dihydro-1,3-benzoxazin-8-yl]-5-fluoro-2-(3-oxa-8-azabicyclo[3.2.1]octan-8-yl)benzoic acid], 1.6 nM; in that of `O=C(O)c1cc(F)c(-c2cccc3c2OCN(C(=O)c2c(Cl)cc(N4CCN(CC(F)F)CC4)cc2Cl)C3)cc1N1C2CCC1COC2` [Compound 8-2, 4-[3-[2,6-Dichloro-4-[4-(2,2-difluoroethyl)piperazin-1-yl]benzoyl]-2,4-dihydro-1,3-benzoxazin-8-yl]-5-fluoro-2-(3-oxa-8-azabicyclo[3.2.1]octan-8-yl)benzoic acid], 4 nM.

Take `COCCN1CCN(c2cc(Cl)c(C(=O)N3COc4c(cccc4-c4cc(N5C6CCC5COC6)c(C(=O)O)cc4F)C3)c(Cl)c2)CC1(C)C` [Compound 8-3, 4-[3-[2,6-Dichloro-4-[4-(2-methoxyethyl)-3,3-dimethylpiperazin-1-yl]benzoyl]-2,4-dihydro-1,3-benzoxazin-8-yl]-5-fluoro-2-(3-oxa-8-azabicyclo[3.2.1]octan-8-yl)benzoic acid]: the EC50 was found to be 2.6 nM.
